According to patent publication US20050209278A1, “Piperidinyl- and piperazinyl-sulfonylmethyl hydroxamic acids and their use as protease inhibitors” (priority 2002, published 2005):
Counter-ions that a name gives are not always drawn. Like-named read-outs stand apart in the source and are kept apart here.

Columns and labels:
Type in all cases: biochemical
MMP-1 = target: T1, MMP-1 (Homo sapiens, UniProt P03956); assay: MMP-1 inhibition (in vitro Ki)
T1 construct: made in house; host or cells: MMP-1-transfected HT-1080 cells (spent media)
T1 sequence (P03956 100-469): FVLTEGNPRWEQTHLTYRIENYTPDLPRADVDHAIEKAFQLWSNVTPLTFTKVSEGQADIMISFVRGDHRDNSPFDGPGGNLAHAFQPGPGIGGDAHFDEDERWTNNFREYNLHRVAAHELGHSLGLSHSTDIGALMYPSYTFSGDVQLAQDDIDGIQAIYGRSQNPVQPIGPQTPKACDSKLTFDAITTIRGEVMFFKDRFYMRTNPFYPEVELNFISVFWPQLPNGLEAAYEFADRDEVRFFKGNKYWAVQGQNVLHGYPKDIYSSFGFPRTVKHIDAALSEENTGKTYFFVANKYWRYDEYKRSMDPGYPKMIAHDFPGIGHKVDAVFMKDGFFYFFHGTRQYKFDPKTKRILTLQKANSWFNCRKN

MMP-9 = target: T2, MMP-9 (Homo sapiens, UniProt P14780); assay: MMP-9 inhibition (in vitro Ki)
T2 construct: made in house; host or cells: MMP-9-transfected HT1080 cells (spent media)
T2 sequence (P14780 107-707 limits assumed): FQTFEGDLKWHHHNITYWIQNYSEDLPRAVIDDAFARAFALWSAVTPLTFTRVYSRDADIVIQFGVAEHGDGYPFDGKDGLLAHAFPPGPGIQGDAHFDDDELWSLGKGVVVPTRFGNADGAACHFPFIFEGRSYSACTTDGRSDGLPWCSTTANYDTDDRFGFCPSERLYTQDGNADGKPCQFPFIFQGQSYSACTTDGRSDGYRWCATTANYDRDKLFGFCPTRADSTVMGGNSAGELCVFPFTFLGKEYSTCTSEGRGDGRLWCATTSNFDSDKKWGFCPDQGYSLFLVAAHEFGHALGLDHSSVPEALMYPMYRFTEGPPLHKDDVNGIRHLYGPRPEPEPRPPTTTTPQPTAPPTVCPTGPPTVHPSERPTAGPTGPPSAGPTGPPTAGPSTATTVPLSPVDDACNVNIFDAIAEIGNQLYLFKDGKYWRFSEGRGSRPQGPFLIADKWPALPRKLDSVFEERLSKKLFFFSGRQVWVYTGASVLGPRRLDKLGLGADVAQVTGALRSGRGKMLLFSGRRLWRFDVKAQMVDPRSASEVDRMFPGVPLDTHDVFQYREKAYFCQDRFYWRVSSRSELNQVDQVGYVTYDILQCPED

MMP-13 [1] = target: T3, MMP-13 (Homo sapiens, UniProt P45452); assay: MMP-13 inhibition (in vitro Ki)
T3 construct: made in house; host or cells: baculovirus / insect cells

MMP-2 [2] = target: T4, MMP-2 (Homo sapiens, UniProt P08253); assay: MMP-2 inhibition (in vitro Ki)
T4 construct: made in house; host or cells: MMP-2-transfected p2AHT2 cells
T4 sequence (P08253 110-660): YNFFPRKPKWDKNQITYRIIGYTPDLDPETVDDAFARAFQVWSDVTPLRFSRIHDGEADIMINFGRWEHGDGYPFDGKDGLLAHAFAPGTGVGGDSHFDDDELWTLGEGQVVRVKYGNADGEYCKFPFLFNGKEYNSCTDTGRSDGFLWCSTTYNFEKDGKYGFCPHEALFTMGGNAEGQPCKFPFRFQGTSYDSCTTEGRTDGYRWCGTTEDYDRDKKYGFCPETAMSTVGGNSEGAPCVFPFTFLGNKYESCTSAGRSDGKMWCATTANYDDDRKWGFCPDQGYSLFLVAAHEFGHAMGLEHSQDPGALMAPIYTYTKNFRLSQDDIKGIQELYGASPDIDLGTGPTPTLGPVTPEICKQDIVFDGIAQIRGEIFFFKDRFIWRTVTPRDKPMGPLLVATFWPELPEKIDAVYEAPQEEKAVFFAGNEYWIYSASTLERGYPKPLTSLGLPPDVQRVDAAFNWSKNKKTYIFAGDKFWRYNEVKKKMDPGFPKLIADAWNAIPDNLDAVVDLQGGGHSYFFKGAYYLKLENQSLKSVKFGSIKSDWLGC

MMP-14 = target: T5, MMP-14 (Homo sapiens, UniProt P50281); assay: MMP-14 inhibition (in vitro Ki)
T5 construct: The catalytic domain enzyme was expressed in E. coli inclusion bodies, solubilized in urea; made in house

MMP-13 [3] = target: T3, MMP-13; assay: In vitro MMP inhibition, Ki determination (fluorogenic substrate II); conditions: read-out: MMP-13 Ki
Description: (§1) Several hydroxamic acids and salts thereof were analyzed in in vitro assays to determine their ability to inhibit the MMP cleavage of peptide substrates. […] and IC50 constants were calculated from the assayed hydroxamic acid-MMP interactions.
(§2) Human recombinant MMP-1, MMP-2, MMP-9, MMP-13, and MMP-14 were used in this assay. All enzymes were prepared in Assignee's laboratories following usual laboratory procedures. Protocols for the preparation and use of these enzymes are available in the scientific literature. See, e.g., Enzyme Nomenclature (Academic Press, San Diego, Calif., 1992) (and the citations therein). See also, Freije et al., “Molecular cloning and expression of collagenase-3, a novel human matrix metalloproteinase produced by breast carcinomas,” J Biol. Chem., 269(24), 16766-16773 (1994).
The MMP-13 was obtained as a proenzyme from a full-length cDNA clone using baculovirus, as described by V. A. Luckow, “Insect Cell Expression Technology,” Protein Engineering: Principles and Practice, pp. 183-218 (edited by J. L. Cleland et al., Wiley-Liss, Inc., 1996). The expressed proenzyme was first purified over a heparin agarose column, and then over a chelating zinc chloride column. The proenzyme was then activated by APMA for use in the assay. […] See also, O'Reilly et al, Baculovirus Expression Vectors: A Laboratory Manual (W.H. Freeman and Co., New York, N.Y., 1992). See also, King et al., The Baculovirus Expression System: A Laboratory Guide (Chapman & Hall, London, England, 1992).
(§3) All MMPs were activated using 4-aminophenylmercuric acetate (“APMA”, Sigma Chemical, St. Louis, Mo.) or trypsin. MMP-9 also was activated using human recombinant MMP-3 (purified in Assignee's laboratory following standard cloning and purification techniques).
(§4) Two fluorogenic, methoxycoumarin-containing polypeptide substrates were used in the MMP inhibition assays: [drawing 427] Here, “Dpa” is 3-(2,4-dinitrophenyl)-L-2,3-diaminopropionyl group, and “MCA” is 7-methoxycoumarin-4-yl acetyl. Substrate (I) was purchased from Baychem (Redwood City, Calif.), and substrate II was prepared Assignee's laboratory. Substrate I was used in the IC50 determination assays, while substrate II was used in the Ki determination assays. In the absence of MMP inhibitory activity, either substrate is cleaved at the Gly-Leu peptide bond. This cleavage separates the highly fluorogenic peptide from the 2,4-dinitrophenyl quencher, thus resulting in increase of fluorescent intensity.
(§5) The stock solutions of the assayed hydroxamic acids (or salts thereof) were prepared in 1% dimethyl sulfoxide (DMSO). These stock solutions were diluted in Buffer A (100 mM Tris-HCl, 100 mM NaCl, 10 mM CaCl2, 0.05% polyoxyethylene 23 lauryl ether, pH 7.5) to obtain solutions with different hydroxamic acid concentrations, i.e., assay solutions with different concentrations of the assayed MMP inhibitory compound. The experiment controls contained the same amount of Buffer A/DMSO as the assayed sample, but contained no hydroxamic acid (or salt thereof).
(§6) The assays from which the Ki determinations were made were performed as follows. The assayed hydroxamic acid samples were incubated in separate wells of untreated white polystyrene plates (Nunc Nalgene International, Rochester, N.Y.), and analyzed on a Tecan SpectraFlour Plus plate reader. The excitation wavelength was 330 nm, and the emission wavelength—420 nm. All samples (assayed hydroxamic acids and controls) were incubated in separate plate wells at room temperature for 1 hr in the presence of 4 μM of MMP substrate (II). In the absence of MMP inhibitory activity, substrate II was cleaved at the Gly-Leu bond resulting in an increase of relative fluorescence. Inhibition was observed as a reduced rate of this increase in relative fluorescence. The various hydroxamic acids were analyzed using a single low enzyme concentration with a single substrate concentration fixed at or below the Km.

MMP-2 [4] = target: T4, MMP-2; assay: as above; conditions: read-out: MMP-2 Ki
Description: as §1, §2
The MMP-2 proenzyme was purified by gelatin Sepharose chromatography from MMP-2-transfected p2AHT2 cells provided by Dr. Gregory Goldberg of Washington University (St. Louis, Mo.).
as §3, §4, §5
as §6, with “Km. This protocol is a modification of method by Knight et al., FEBS Lett., 296(3), 263-266 (1992). Apparent inhibitory constants were determined by non-linear regression of reaction velocity as a function of inhibitor and enzyme concentration using Morrison's equation, as described by Kuzmic, Anal. Biochem. 286, 45-50 (2000). […] Since the substrate concentration was chosen to be at or below the Km, the apparent Ki's from this analysis were reported as Ki's without correction for the influence of substrate.” for “Km.”

[5] = Table 9, read-out: MMP-1 Ki (IC-50)
[6] = Table 9, read-out: MMP-9 Ki (IC-50)
[7] = Table 9, read-out: MMP-13 Ki (IC-50)
[8] = Table 9, read-out: MMP-2 Ki (IC-50)
[9] = Table 9, read-out: MMP-14 Ki (IC-50)

| Ki (MMP-1; [5]) | Ki (MMP-9; [6]) | Ki (MMP-13 [1]; [7]) | Ki (MMP-2 [2]; [8]) | Ki (MMP-14; [9]) | Structure (SMILES) | other results |
| --- | --- | --- | --- | --- | --- | --- |
| – | – | – | – | – | CCCCCOC1CCN(S(=O)(=O)C2(C(=O)NO)CCOCC2)CC1 [Example A36A] | Ki (MMP-1; Table 8, read-out: MMP-1 Ki): > 10000 nM; Ki (MMP-9; Table 8, read-out: MMP-9 Ki): 2.65 nM; Ki (MMP-13 [1]; Table 8, read-out: MMP-13 Ki): 9.36 nM; Ki (MMP-2 [2]; Table 8, read-out: MMP-2 Ki): 6 nM; Ki (MMP-14; Table 8, read-out: MMP-14 Ki): 816 nM |
| > 10000 nM | 389 nM | 50.8 nM | 686 nM | > 10000 nM | CN(C(=O)CCCC1CCN(S(=O)(=O)C2(C(=O)NO)CCOCC2)CC1)c1ccccc1 [Example A143] | – |
| > 10000 nM | 6.77 nM | 6.77 nM | 8.83 nM | > 10000 nM | O=C(NO)C1(S(=O)(=O)N2CCC(c3ccc(-c4nccs4)cn3)CC2)CCOCC1 [Example A200] | – |
| > 10000 nM | 0.29 nM | 0.23 nM | 0.65 nM | 5100 nM | O=C(NO)C1(S(=O)(=O)N2CCC(c3ccc(CCC(F)(F)C(F)(F)F)cn3)CC2)CCN(C2CC2)CC1 [Example A204] | – |
| > 10000 nM | 7.04 nM | 2.63 nM | 4.42 nM | 6550 nM | COCCOc1ccc(C2CCN(S(=O)(=O)C3(C(=O)NO)CCOCC3)CC2)nc1 [Example A149] | – |
| 716 nM | 0.16 nM | 0.09 nM | 0.22 nM | 140 nM | CC1(C)O[C@H]2C[C@@](C(=O)NO)(S(=O)(=O)N3CCC(c4ccc(CCC(F)(F)C(F)(F)F)cn4)CC3)C[C@H]2O1 [Example A73] | – |
| > 10000 nM | 12.6 nM | 8.86 nM | 8.71 nM | 1700 nM | O=C(NO)C1(S(=O)(=O)N2CCC(c3ccc(-n4cccn4)cn3)CC2)CCOCC1 [Example A194] | – |
| 1720 nM | 1.69 nM | 0.95 nM | 1.1 nM | 42.7 nM | O=C(NO)C1(S(=O)(=O)N2CCC(CCc3ccccc3)CC2)CCOCC1 [Example A185] | – |
| > 10000 nM | > 10000 nM | 5.94 nM | 2450 nM | > 10000 nM | CN(C(=O)/C=C/C=C/C1CCN(S(=O)(=O)C2(C(=O)NO)CCOCC2)CC1)C1CCCCC1 [Example A79] | – |
| > 10000 nM | > 10000 nM | 106 nM | > 10000 nM | > 10000 nM | CN(C(=O)CCCCN1CCN(S(=O)(=O)C2(C(=O)NO)CCOCC2)CC1)C1CCCCC1 [Example A125] | – |
| – | – | – | – | – | CCCCCCCCOC1CCN(S(=O)(=O)C2(C(=O)NO)CCOCC2)CC1 [Example A36B] | Ki (MMP-1; Table 8, read-out: MMP-1 Ki): > 10000 nM; Ki (MMP-9; Table 8, read-out: MMP-9 Ki): 1.34 nM; Ki (MMP-13 [1]; Table 8, read-out: MMP-13 Ki): 0.63 nM; Ki (MMP-2 [2]; Table 8, read-out: MMP-2 Ki): 1.87 nM; Ki (MMP-14; Table 8, read-out: MMP-14 Ki): 1080 nM |
| – | – | – | – | – | COCCC(CCOC)(C(=O)NO)S(=O)(=O)N1CCC(c2ccc(CCC(F)(F)C(F)(F)F)cn2)CC1 [Example A61, N-hydroxy-4-methoxy-2-(2-methoxyethyl)-2-({4-[5-(3,3,4,4,4-pentafluorobutyl)pyridin-2-yl]piperidin-1-yl}sulfonyl)butanamide Hydrochloride] | Ki (MMP-1; Table 8, read-out: MMP-1 Ki): 3530 nM; Ki (MMP-9; Table 8, read-out: MMP-9 Ki): 0.38 nM; Ki (MMP-13 [1]; Table 8, read-out: MMP-13 Ki): 0.16 nM; Ki (MMP-2 [2]; Table 8, read-out: MMP-2 Ki): 0.98 nM; Ki (MMP-14; Table 8, read-out: MMP-14 Ki): 4170 nM |
| 1050 nM | 336 nM | 0.82 nM | 92.3 nM | > 10000 nM | CN(C(=O)CCCCC1CCN(S(=O)(=O)C2(C(=O)NO)CCOCC2)CC1)c1ccc(F)cc1 [Example A93] | – |
| > 10000 nM | 0.73 nM | 0.52 nM | 1.31 nM | 6520 nM | O=C(NO)C1(S(=O)(=O)N2CCC(c3ccc(CCC(F)(F)C(F)(F)F)cn3)CC2)CCN(Cc2ccccc2)CC1 [Example A174] | – |
| – | – | – | – | – | Cc1cccc(-c2csc(N3CCN(S(=O)(=O)C4(C(=O)NO)CCOCC4)CC3)n2)c1 [Example 414] | Ki (MMP-13 [3]; value outside parentheses): 4190 nM; Ki (MMP-2 [4]; value outside parentheses): 2660 nM |
| – | – | – | – | – | CCc1ccc(N2CCN(S(=O)(=O)C3(C(=O)NO)CCOCC3)CC2)nc1 [Example 137] | Ki (MMP-13 [3]; value not in parenthesis): 0.75 nM; Ki (MMP-2 [4]; value not in parenthesis): 0.37 nM |
| > 10000 nM | 1620 nM | – | 770 nM | > 10000 nM | O=C(NO)C1(S(=O)(=O)N2CCC(N3CCN(c4ccc(F)cc4)CC3)CC2)CCOCC1 [Example A197] | – |
